Results published in ChEMBL document CHEMBL5550216, “Discovery of Triazolopyrimidine Derivatives as Selective P2X3 Receptor Antagonists Binding to an Unprecedented Allosteric Site as Evidenced by Cryo-Electron Microscopy” (J Med Chem, 2024).

What was measured:
[1] = Permeability of compound at 10 uM incubated for 4 hrs by PAMPA; format: ADME; settings: read-out: permeability
[2] = Metabolic stability in human liver microsomes assessed as compound remaining at 100 uM preincubated for 10 mins followed by NADPH addition and measured after 30 mins by LC-MS/MS analysis; format: ADME, Microsome; settings: time 40 min, read-out: Stability
[3] = Metabolic stability in rat liver microsomes assessed as compound remaining at 100 uM preincubated for 10 mins followed by NADPH addition and measured after 30 mins by LC-MS/MS analysis; format: ADME, Microsome; settings: time 40 min, read-out: Stability
[4] = Metabolic stability in mouse liver microsomes assessed as compound remaining at 100 uM preincubated for 10 mins followed by NADPH addition and measured after 30 mins by LC-MS/MS analysis; format: ADME, Microsome; settings: time 40 min, read-out: Stability
P2X purinoceptor 4 = biological target: T1, P2X purinoceptor 4 (Homo sapiens, UniProt Q99571); experiment: Antagonist activity at human P2X4 receptor expressed in 1321N1 cells incubated for 30 mins in presence of ATP by Fluo-4 dye based microplate reader assay; format: cell-based
T1 sequence (Q99571 whole entry): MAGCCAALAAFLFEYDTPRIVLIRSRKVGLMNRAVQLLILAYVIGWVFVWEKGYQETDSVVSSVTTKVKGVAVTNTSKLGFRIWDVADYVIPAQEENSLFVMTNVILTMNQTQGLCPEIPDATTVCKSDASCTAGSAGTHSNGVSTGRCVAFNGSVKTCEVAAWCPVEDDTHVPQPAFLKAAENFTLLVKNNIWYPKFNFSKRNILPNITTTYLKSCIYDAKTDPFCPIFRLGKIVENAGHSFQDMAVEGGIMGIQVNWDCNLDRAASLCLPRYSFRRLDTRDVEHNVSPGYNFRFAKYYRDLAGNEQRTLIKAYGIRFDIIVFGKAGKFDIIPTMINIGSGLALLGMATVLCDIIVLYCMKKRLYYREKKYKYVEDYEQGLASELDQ

P2X purinoceptor 1 = biological target: T2, P2X purinoceptor 1 (Homo sapiens, UniProt P51575); experiment: Antagonist activity at human P2X1 receptor expressed in 1321N1 cells incubated for 30 mins in presence of ATP by Fluo-4 dye based microplate reader assay; format: cell-based
T2 sequence (P51575 whole entry): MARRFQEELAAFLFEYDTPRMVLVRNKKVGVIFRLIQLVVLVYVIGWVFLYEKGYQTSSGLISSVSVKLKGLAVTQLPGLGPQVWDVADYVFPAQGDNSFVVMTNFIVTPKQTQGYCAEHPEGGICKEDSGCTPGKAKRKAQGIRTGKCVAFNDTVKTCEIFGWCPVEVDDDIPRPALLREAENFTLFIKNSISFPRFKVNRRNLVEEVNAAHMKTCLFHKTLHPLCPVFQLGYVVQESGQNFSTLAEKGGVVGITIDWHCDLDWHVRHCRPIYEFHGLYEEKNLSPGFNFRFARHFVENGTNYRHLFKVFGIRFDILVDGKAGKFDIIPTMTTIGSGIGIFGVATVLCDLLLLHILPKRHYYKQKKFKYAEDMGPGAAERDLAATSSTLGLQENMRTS

P2X purinoceptor 7 = biological target: T3, P2X purinoceptor 7 (Homo sapiens, UniProt Q99572); experiment: Antagonist activity at human P2X7 receptor expressed in 1321N1 cells incubated for 30 mins in presence of Bz-ATP by Fluo-4 dye based microplate reader assay; format: cell-based
T3 sequence (Q99572 whole entry): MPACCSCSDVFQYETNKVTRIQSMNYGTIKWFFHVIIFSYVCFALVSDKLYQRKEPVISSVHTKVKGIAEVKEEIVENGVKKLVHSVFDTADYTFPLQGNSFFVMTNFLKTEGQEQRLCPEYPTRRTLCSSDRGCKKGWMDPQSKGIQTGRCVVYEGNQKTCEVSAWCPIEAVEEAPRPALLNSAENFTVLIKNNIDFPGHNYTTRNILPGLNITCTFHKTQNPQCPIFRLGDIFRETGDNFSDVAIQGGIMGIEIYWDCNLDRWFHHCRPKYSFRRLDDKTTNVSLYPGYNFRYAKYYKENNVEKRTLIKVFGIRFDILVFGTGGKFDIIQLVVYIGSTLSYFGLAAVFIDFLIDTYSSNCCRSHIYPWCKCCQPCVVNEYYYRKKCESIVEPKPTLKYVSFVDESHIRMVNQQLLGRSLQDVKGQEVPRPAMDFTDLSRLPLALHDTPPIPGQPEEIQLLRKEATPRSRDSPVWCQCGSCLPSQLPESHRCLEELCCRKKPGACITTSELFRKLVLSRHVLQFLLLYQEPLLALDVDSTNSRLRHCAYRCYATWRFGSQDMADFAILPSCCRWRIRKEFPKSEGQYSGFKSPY

[5] = biological target: T4, P2X2/P2X3 heterotrimeric receptor (Homo sapiens, UniProt P56373+Q9UBL9); experiment: Antagonist activity at human P2X2/3R expressed in HEK293 cells incubated for 18 hrs by Fluo-4 dye based microplate reader assay
T4 sequence (Q9UBL9 whole entry): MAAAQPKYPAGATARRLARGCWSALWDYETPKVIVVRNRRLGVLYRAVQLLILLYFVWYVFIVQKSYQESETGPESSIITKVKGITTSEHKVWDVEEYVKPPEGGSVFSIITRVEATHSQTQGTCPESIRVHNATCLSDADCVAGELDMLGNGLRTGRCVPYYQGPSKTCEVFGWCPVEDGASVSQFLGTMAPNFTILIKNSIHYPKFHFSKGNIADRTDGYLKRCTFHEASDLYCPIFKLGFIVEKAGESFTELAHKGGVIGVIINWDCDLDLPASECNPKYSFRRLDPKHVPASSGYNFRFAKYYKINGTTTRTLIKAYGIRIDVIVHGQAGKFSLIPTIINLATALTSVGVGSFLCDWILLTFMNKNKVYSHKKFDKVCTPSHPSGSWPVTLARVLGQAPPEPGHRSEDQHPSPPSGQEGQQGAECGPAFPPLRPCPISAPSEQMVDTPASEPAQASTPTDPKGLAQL
T4 sequence (P56373 whole entry): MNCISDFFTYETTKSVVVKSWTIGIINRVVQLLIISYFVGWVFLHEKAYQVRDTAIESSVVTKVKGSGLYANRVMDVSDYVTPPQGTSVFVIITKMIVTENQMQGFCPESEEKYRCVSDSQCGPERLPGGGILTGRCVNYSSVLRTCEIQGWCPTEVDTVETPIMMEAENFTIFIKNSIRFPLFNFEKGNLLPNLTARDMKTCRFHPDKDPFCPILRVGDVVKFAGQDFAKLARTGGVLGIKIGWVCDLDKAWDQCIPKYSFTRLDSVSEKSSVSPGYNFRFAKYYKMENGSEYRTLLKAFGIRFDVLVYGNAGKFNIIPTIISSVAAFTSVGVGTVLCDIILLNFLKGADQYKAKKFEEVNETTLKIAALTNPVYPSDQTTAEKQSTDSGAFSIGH

[6] = biological target: T4, P2X2/P2X3 heterotrimeric receptor; experiment: Antagonist activity at human P2X2/3 receptor expressed in HEK293 cells preincubated for 30 mins followed by alpha, beta me-ATP addition and measured for 10 mins by Fluo-8 dye based FLIPR assay
P2X purinoceptor 3 = biological target: T5, P2X purinoceptor 3 (Homo sapiens, UniProt P56373); experiment: Antagonist activity at human P2X3R expressed in HEK293 cells incubated for 18 hrs by Fluo-4 dye based microplate reader assay
T5 sequence (P56373 whole entry): T4 sequence (P56373 whole entry)

| Papp at 4 h, 10 µM [1] [×10⁻⁶ cm/s] | remaining at 0.5 h, 100 µM [2] [%] | remaining at 0.5 h, 100 µM [3] [%] | remaining at 0.5 h, 100 µM [4] [%] | Structure (SMILES) | other results |
| --- | --- | --- | --- | --- | --- |
| 5.41 |  |  |  | NC(=O)N1c2ccccc2C=Cc2ccccc21 [CARBAMAZEPINE] |  |
|  | 33.2 | 4.2 | 15.2 | CC(=O)N1CCN(c2cc(N[C@H](C)c3ccc4ccccc4c3)n3nc(C4CCCC4)nc3n2)CC1 |  |

Second part, the compound before the results:

| Structure (SMILES) | Papp at 4 h, 10 µM [1] [×10⁻⁶ cm/s] | remaining at 0.5 h, 100 µM [2] [%] | remaining at 0.5 h, 100 µM [3] [%] | remaining at 0.5 h, 100 µM [4] [%] | other results |
| --- | --- | --- | --- | --- | --- |
| C[C@@H](Nc1cc(N2CCN(C(N)=O)CC2)nc2nc(C3CC3)nn12)c1ccc2ccccc2c1 | < 0.0185 | 50.2 | 0.3 | 50.6 | IC50 (P2X purinoceptor 4): > 10 µM; IC50 (P2X purinoceptor 1): 4.28 µM; IC50 (P2X purinoceptor 7): > 10 µM |
| CNC(=O)c1cc(F)c(-c2nc3cc(C)ccn3c2CC2CCCN(C(=O)OC)C2)c(F)c1 (single isomer, unassigned) |  |  |  |  | IC50 [5]: 5.06 µM; IC50 [6]: > 24 µM; IC50 (P2X purinoceptor 3): 0.0155 µM |
| CC(C)(C)NCC(O)COc1cccc2c1CC(O)C(O)C2 (stereo not drawn) [NADOLOL] | < 0.0185 |  |  |  |  |
| CC(=O)N1CCN(c2cc(N[C@H](C)c3ccc4ccccc4c3)n3nc(C4CCC4)nc3n2)CC1 |  | 28.3 | 0.2 | 18 |  |
